The record followed here is patent publication US20170342025A1, “ANTIMICROBIAL COMPOUNDS, COMPOSITIONS AND METHODS” (Swansea University, priority 2014, published 2017).

Data set [1] concerns Escherichia coli (strain JM109). The data set can be described thus: MIC determination against Escherichia coli (Andrews protocol). In kind it is cell-based. The note with it: for MIC: Escherichia coli, read-out: MIC E. coli. The method, then:
(§1) Minimum Inhibitory Concentrations (MICs) for the compounds prepared were determined against Escherichia coli (strain JM109) and Staphylococcus aureus (strain 9518) using the protocols described by Andrews (J. Antimicrob. Chemother., 2001, 48, Suppl. S1, 5-16).

In data set [2] the test system is Staphylococcus aureus (strain 9518). The data set can be described thus: MIC determination against Staphylococcus aureus (Andrews protocol). In kind it is cell-based. The note with it: for MIC: Staphylococcus aureus, read-out: MIC S. aureus. The method, then: as §1
In data set [3] the test system is methicillin-resistant staphylococcus aureus (MRSA) strain EMRSA-15. The data set can be described thus: MIC against MRSA strain EMRSA-15. In kind it is cell-based. The method, then: as §1
(§2) In addition, three compounds were tested against methicillin-resistant staphylococcus aureus (MRSA) strains MRSA-III (ST239) and EMRSA-15.

For data set [4], the system named is methicillin-resistant staphylococcus aureus (MRSA) strain MRSA-III (ST239). The data set can be described thus: MIC against MRSA strain MRSA-III (ST239). In kind it is cell-based. The note with it: read-out: MIC against MRSA-III. The protocol: as §1, §2
Setting [5] is: Staphylococcus aureus strain 9518.
The mark [6] stands for this setting: second MRSA strain, text names EMRSA-15, read-out: MIC against MRSA-1.

SMILES strings stand for the structures. Like-named read-outs stand apart in the source and are kept apart here.

As a reminder, the MIC is the least concentration at which growth counts as inhibited. For orientation: melting point means the temperature of the solid-liquid transition. `CC(=O)O.N=C(N)N/N=C/c1cccc(OCc2cccc(C(F)(F)F)c2)c1Cl` [Compound 51j, (E)-Amino(2-(2-chloro-3-((3-(trifluoromethyl)benzyl)oxy)benzylidene)hydrazinyl) methaniminium acetate] registered a melting point of 183 to 187 °C. Besides, in data set [1] (Escherichia coli strain JM109), the MIC was 1 to 10 µg/mL. The MIC in data set [2] (setting [5]) was 1 to 10 µg/mL.
As to `Cl.N=C(N)N/N=C/c1cccc(OCc2cc(Cl)cc(Cl)c2Cl)c1Cl` [Compound 51i, (E)-Amino(2-(2-chloro-3-((2,3,5-trichlorobenzyl)oxy)benzylidene)hydrazinyl) methaniminium chloride], the melting point is 273 to 276 °C. The MIC in data set [1] (Escherichia coli strain JM109) fell in the range of 32 to 100 µg/mL. In data set [2] (setting [5]), the MIC lay within 32 to 100 µg/mL.
Regarding `Cl.N=C(N)N/N=C/c1cccc(OCc2cccc(C(F)(F)F)c2)c1Cl`, the melting point lay within 198 to 201 °C.
`COc1cccc(COc2cccc(/C=N/NC(=N)N)c2Cl)c1Cl.Cl` [Compound 51a, (E)-Amino(2-(2-chloro-3-((2-chloro-3-methoxybenzyl)oxy)benzylidene) hydrazinyl)methaniminium chloride] yielded a melting point of 258 to 260 °C. Further, the MIC in data set [1] (Escherichia coli strain JM109) lay within 32 to 100 µg/mL. The MIC in data set [2] (setting [5]) is 32 to 100 µg/mL.
For the molecule `N=C(N)NCc1ccc(OCc2cccc(Cl)c2Cl)cc1.O=C(O)C(F)(F)F` [Compound 19e, 1-(4-((2,3-dichlorobenzyl)oxy)benzyl)guanidine 2,2,2-trifluoroacetate], the MIC in data set [3] (setting [6]) was in the range of 1 to 10 µg/mL; in data set [1] (Escherichia coli strain JM109) it was 1 to 10 µg/mL; in data set [4] (MRSA-III (ST239)), 1 to 10 µg/mL; in data set [2] (setting [5]), 10 to 32 µg/mL.
As for `CC(=O)O.N=C(N)NN=Cc1cccc(OCc2cccc(C(F)(F)F)c2Cl)c1` [Compound 49b, 1-{[(3-{[2-chloro-3-(trifluoromethyl)phenyl]methoxy}phenyl)methylidene]amino} guanidine acetate], the melting point fell in the range of 190 to 192 °C. Further, the MIC in data set [1] (Escherichia coli strain JM109) fell in the range of 1 to 10 µg/mL. Further, the MIC in data set [2] (setting [5]) lay in the range of 1 to 10 µg/mL.
`Cl.N=C(N)N/N=C/c1cccc(OCc2cccc(Cl)c2Cl)c1Cl` [Compound 51d, (E)-Amino(2-(2-chloro-3-((2,3-dichlorobenzyl)oxy)benzylidene)hydrazinyl) methaniminium chloride] registered a melting point of 250 to 253 °C. Besides, the MIC in data set [1] (Escherichia coli strain JM109) was 1 to 10 µg/mL. Further, in data set [2] (setting [5]), the MIC lay within 32 to 100 µg/mL.
`Cl.N=C(N)N/N=C/c1cccc(OCc2ccc(Cl)cc2)c1Cl` [Compound 51c, (E)-Amino(2-(2-chloro-3-((4-chlorobenzyl)oxy)benzylidene)hydrazinyl) methaniminium chloride]: the melting point is 237 to 239 °C. Further, in data set [1] (Escherichia coli strain JM109), the MIC was in the range of 1 to 10 µg/mL. The MIC in data set [2] (setting [5]) lay in the range of 1 to 10 µg/mL.
Regarding `Cl.N=C(N)N/N=C/c1cccc(OCc2cc(Cl)ccc2Cl)c1Cl` [Compound 51g, (E)-Amino(2-(2-chloro-3-((2,5-dichlorobenzyl)oxy)benzylidene)hydrazinyl) methaniminium chloride], the melting point lay within 242 to 244 °C. In data set [1] (Escherichia coli strain JM109), the MIC was 10 to 32 µg/mL. For the same molecule, the MIC in data set [2] (setting [5]) lay within 32 to 100 µg/mL.
Consider `Cl.N=C(N)N/N=C/c1cccc(OCc2ccc(Cl)cc2Cl)c1Cl` [Compound 51f, (E)-Amino(2-(2-chloro-3-((2,4-dichlorobenzyl)oxy)benzylidene)hydrazinyl) methaniminium chloride], for which the melting point lay in the range of 268 to 270 °C. Further, the MIC in data set [1] (Escherichia coli strain JM109) lay within 1 to 10 µg/mL. Further, the MIC in data set [2] (setting [5]) was 32 to 100 µg/mL.
In the same order, the values of `Cl.N=C(N)N/N=C/c1cccc(OCc2ccccc2)c1Cl` [Compound 51b, (E)-Amino(2-(3-(benzyloxy)-2-chlorobenzylidene)hydrazinyl)methaniminium chloride] are 203 to 205 °C, 1 to 10 µg/mL and 1 to 10 µg/mL.
Take `CC(=O)O.N=C(N)NN=Cc1cccc(OCc2cccc(Cl)c2Cl)c1` [Compound 49a, 1-[({3-[(2,3-dichlorophenyl)methoxy]phenyl}methylidene)amino]guanidine acetate]: the melting point was in the range of 159 to 160 °C. Moreover, the MIC in data set [3] (setting [6]) is 1 to 10 µg/mL. Also, the MIC in data set [1] (Escherichia coli strain JM109) fell in the range of 1 to 10 µg/mL. Moreover, the minimum inhibitory concentration (MIC) in data set [4] (MRSA-III (ST239)) lay within 1 to 10 µg/mL. Besides, the MIC in data set [2] (setting [5]) was 1 to 10 µg/mL.
`Cl.N=C(N)N/N=C/c1cccc(OCc2ccc(Cl)c(Cl)c2)c1Cl` [Compound 51h, (E)-Amino(2-(2-chloro-3-((3,4-dichlorobenzyl)oxy)benzylidene)hydrazinyl) methaniminium chloride] yielded a melting point of 230 to 233 °C. Also, the MIC in data set [1] (Escherichia coli strain JM109) was in the range of 1 to 10 µg/mL. In addition, the MIC in data set [2] (setting [5]) was 1 to 10 µg/mL.
With `N=C(N)NCc1cccc(OCc2cccc(C(F)(F)F)c2Cl)c1.O=C(O)C(F)(F)F` [Compound 4L, 1-[(3-{[2-chloro-3-(trifluoromethyl)phenyl]methoxy}phenyl)methyl]guanidine 2,2,2-trifluoroacetate], the MIC lay within 1 to 10 µg/mL in data set [3] (MRSA, read-out: MIC against MRSA-1); 1 to 10 µg/mL in data set [1]; 1 to 10 µg/mL in data set [4] (MRSA); 10 to 32 µg/mL in data set [2].
Turning to `N=C(N)Nc1cccc2c1CCCC2.O=C(O)C(F)(F)F` [Compound 23d, 1-(5,6,7,8-tetrahydronaphthalen-1-yl)guanidine 2,2,2-trifluoroacetate], the melting point is 153 to 155 °C. Further, the MIC in data set [1] (Escherichia coli strain JM109) was more than 100 µg/mL. Besides, the MIC in data set [2] (setting [5]) is more than 100 µg/mL.
On to `Cl.N=C(N)N/N=C/c1cccc(OCc2ccc(C(F)(F)F)cc2)c1Cl` [Compound 51k, (E)-Amino(2-(2-chloro-3-((4-(trifluoromethyl)benzyl)oxy)benzylidene)hydrazinyl) methaniminium chloride], for which the melting point is 245 to 247 °C. Moreover, the MIC in data set [1] (Escherichia coli strain JM109) was in the range of 10 to 32 µg/mL. The MIC in data set [2] (setting [5]) was 10 to 32 µg/mL.
`Cl.N=C(N)N/N=C/c1cccc(OCc2cccc(C(F)(F)F)c2Cl)c1Cl` [Compound 51e, (E)-Amino(2-(2-chloro-3-((2-chloro-3-(trifluoromethyl)benzyl)oxy)benzylidene) hydrazinyl)methaniminium chloride]: the melting point is 274 to 277 °C. Also, in data set [1] (Escherichia coli strain JM109), the MIC is 1 to 10 µg/mL. Further, in data set [2] (setting [5]), the MIC was 32 to 100 µg/mL.
As for `N=C(N)NCc1cccc(NS(=O)(=O)c2ccc(Cl)cc2)c1.O=C(O)C(F)(F)F` [Compound 55f, Amino((3-((4-chlorophenyl)sulfonamido)benzyl)amino)methaniminium 2,2,2-trifluoroacetate], the MIC in data set [1] (Escherichia coli strain JM109) and in data set [2] (setting [5]) was 32 to 100 µg/mL in each case.
For `Cl.N=C(N)N/N=C/c1cccc(OCc2ccc(Cl)cc2)c1`, the melting point was 191 to 193 °C.
The molecule `Cl.N=C(N)N/N=C/c1cccc(OCc2ccc(C(F)(F)F)cc2)c1` [Compound 49d, (E)-Amino(2-(3-((4-(trifluoromethyl)benzyl)oxy)benzylidene) hydrazinyl) methaniminium chloride] displayed a melting point of 176 to 179 °C. Moreover, the “MIC E. coli” value in data set [1] (Escherichia coli strain JM109) is “+++ (MIC 1-10 μg/mL)”. For the same molecule, in data set [2] (setting [5]), the “MIC S. aureus” value is “++ (MIC 10-32 μg/mL)”.
For the molecule `Cl.N=C(N)N/N=C/c1cccn1Cc1ccc(Cl)cc1` [Compound 61f, (E)-Amino(2-((1-(4-chlorobenzyl)-1H-pyrrol-2-yl)methylene)hydrazinyl) methaniminium chloride], the MIC in data set [1] (Escherichia coli strain JM109) lay in the range of 32 to 100 µg/mL; in data set [2] (setting [5]), 10 to 32 µg/mL.
